US20260035696A1, “COMBINATION TREATMENT FOR CANCER” (THE UNIVERSITY OF CHICAGO, priority 2022, published 2026)

Test system: IκBα phosphorylation and nuclear RELA in 3×KD BM-MDSCs
Assay: Immunoblot of NF-κB signaling in 3×KD BM-MDSCs co-cultured with LPS
Assay type: cell-based, mouse
Conditions: 3×KD (Adrb2, Metrnl, Smpdl3b) BM-MDSCs, LPS 5 min
Description: FIGS. 15A-15I show YTHDF2 degrades Adrb2, Metrnl, and Smpdl3b transcripts and thereby activates NF-κB signaling in MDSCs. (FIG. 15A) MDSCs were sorted from MC38 tumors in WT, WT+IR, Ythdf2-cKO, Ythdf2-cKO+IR mice and subjected to qPCR analysis of Adrb2, Metrnl and Smpdl3b mRNA level. (FIG. 15B) Graphs showing enrichment of Adrb2, Metrnl and Smpdl3b mRNA in the YTHDF2-immunoprecipitated RNA fraction of bone marrow-derived MDSCs, determined by RIP-qPCR. (FIG. 15C) MDSCs were sorted from bone marrow-derived cells from WT and Ythdf2-cKO mice and were treated with actinomycin D. mRNA was collected at indicated time points after treatment and mRNA levels of Adrb2, Metrnl and Smpdl3b were measured by RT-qPCR. […] Three days after IR, the number of tumor-infiltrating CD45.1^+CD11b^+Ly6C^hi cells was determined. […] The attached cells on the transwell membrane were visualized under a light microscope and quantified. […] Three days after IR, the number of tumor-infiltrating Ccr2^+CD11b^+Ly6C^hi cells was determined. […]
FIGS. 29A-29M show YTHDF2 degrades Adrb2, Metrnl, and Smpdl3b transcripts and thereby activates NF-κB signaling in MDSCs. […] P values were calculated by a nonparametric Wilcoxon-Mann-Whitney test. […] Metrnl and Smpdl3b mRNA in the YTHDF2-immunoprecipitated RNA fraction of bone marrow-derived MDSCs, determined by RIP-qPCR. […]

In the case of `Cc1ccc(S(=O)(=O)/C=C/C#N)cc1` [BAY 11-7082], the “increase of IκBα phosphorylation and nuclear localization of RELA in knockdown MDSCs” value is reported as “prevented this increase”.
